{"source": "paper PMC4878759", "about": "(PLoS ONE, 2016)", "key": {"VRAC [1]": {"system": "VRAC", "experiment": "VRAC activity by YFP quenching in LN215 cells", "assay_type": "cell-based, human", "conditions": "10 μM", "description": "LN215 cells, a human glioma cell line, were stably transfected with YFP-F46L/H148Q/I152L, a halide sensor YFP. After the cells were incubated on 96well black plates (Corning Inc., Corning, NY) for 48 hours, each well of the 96-well plate was washed 3 times in PBS (200 μL/wash), and the wells were filled with 50 μl/well isotonic solution (in mM): 140 NaCl, 5 KCl, 20 HEPES (310 mOsm/kg; pH 7.4 with NaOH). In each well, VRAC expressed on the cells were stimulated with addition of 50 μl of hypotonic solutions (in mM): 5 KCl, 20 HEPES, 90 mannitol (120 mOsm/kg). Test compounds (1 μL) were added to each well in a dose dependent manner. After 5 min, 96-well plates were transferred to a plate reader for fluorescence assay. Each well was assayed individually for VRAC-mediated I^- influx by recording fluorescence continuously (400 ms per point) for 7.6 s. YFP fluorescence was recorded 0.4 s for baseline, then 100 μL of 140 mM I^- solution was added at 0.4 s to see the change in fluorescence. Initial iodide influx rate was determined from the initial slope of fluorescence decrease, by nonlinear regression, following infusion of iodide."}, "VRAC [2]": {"system": "VRAC", "experiment": "Whole-cell patch clamp of hypotonicity-induced VRAC currents in LN215 cells", "assay_type": "cell-based, human", "conditions": "10 μM", "from_the_text": "Pipettes were pulled from borosilicate glass and had resistances of 3–5 MΩ after fire polishing. […] The liquid junction potential (~2.4 mV) was not corrected. After establishing the whole-cell configuration, whole-cell capacitance and series resistance were compensated with the amplifier circuitry. […] VRAC was activated by exposing LN215 cells to a 25% hypotonic bath solution."}, "ANO2": {"molecular_target": "T1, ANO2 (Mus musculus, UniProt Q8CFW1)", "T1 sequence (Q8CFW1 1-1002)": "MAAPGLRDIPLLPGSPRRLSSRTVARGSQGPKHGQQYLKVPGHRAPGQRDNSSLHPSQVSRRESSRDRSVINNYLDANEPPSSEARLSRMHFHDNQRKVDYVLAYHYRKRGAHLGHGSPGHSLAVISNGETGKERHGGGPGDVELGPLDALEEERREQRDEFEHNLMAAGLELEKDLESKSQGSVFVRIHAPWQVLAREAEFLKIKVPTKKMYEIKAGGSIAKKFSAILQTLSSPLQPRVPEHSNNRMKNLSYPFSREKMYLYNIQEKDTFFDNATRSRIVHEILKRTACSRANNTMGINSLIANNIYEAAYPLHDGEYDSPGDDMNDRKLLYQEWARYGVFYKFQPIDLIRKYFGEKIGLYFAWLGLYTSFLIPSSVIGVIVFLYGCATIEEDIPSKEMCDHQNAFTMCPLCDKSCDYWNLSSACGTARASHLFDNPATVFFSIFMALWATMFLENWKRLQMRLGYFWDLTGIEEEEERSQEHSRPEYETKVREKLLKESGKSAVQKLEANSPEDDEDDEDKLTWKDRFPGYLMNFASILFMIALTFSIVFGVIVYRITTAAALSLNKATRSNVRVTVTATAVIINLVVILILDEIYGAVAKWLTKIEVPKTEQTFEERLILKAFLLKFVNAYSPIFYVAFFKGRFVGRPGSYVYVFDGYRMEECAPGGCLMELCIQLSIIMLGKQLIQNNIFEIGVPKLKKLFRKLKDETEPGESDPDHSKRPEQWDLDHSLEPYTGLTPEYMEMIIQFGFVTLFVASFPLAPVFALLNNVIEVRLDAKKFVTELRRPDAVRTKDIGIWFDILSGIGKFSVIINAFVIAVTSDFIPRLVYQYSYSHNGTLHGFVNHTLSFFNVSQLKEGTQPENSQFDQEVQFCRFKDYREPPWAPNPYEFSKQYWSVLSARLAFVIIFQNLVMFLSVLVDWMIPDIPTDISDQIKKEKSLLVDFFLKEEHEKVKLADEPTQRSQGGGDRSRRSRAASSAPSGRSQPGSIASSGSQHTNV", "experiment": "Apical membrane current in FRT-ANO2 cells", "assay_type": "cell-based", "conditions": "10 μM pretreatment", "description": "(§1) Snapwell inserts containing ANO1, ANO2 or CFTR expressing FRT cells, ENaC expressing T-84 cells or the human primary airway epithelial cells were mounted in Ussing chambers (Physiologic Instruments, San Diego, CA). To induce transcriptional ENaC induction, the polarized T84 cells were incubated with 2 mM sodium butyrate for 2 days. To increase the functional expression of ANO1, the human airway epithelial cells were treated with IL-4 (10 ng/mL) for 2 days. For T-84 and the human primary airway epithelial cells, the apical and basolateral bath were filled with HCO3^—buffered solution containing (in mM): 120 NaCl, 5 KCl, 1 MgCl2, 1 CaCl2, 10 D-glucose, 2.5 HEPES, and 25 NaHCO3 (pH 7.4). For FRT cells, the basolateral bath was filled with the HCO3^—buffered solution and the apical bath was filled with a half-Cl^- solution. In the half-Cl^- solution 65 mM NaCl in the HCO3^—buffered solution was replaced by Na-gluconate. […] ATP was applied to the apical bath solution to induce intracellular calcium increase. […] Apical membrane currents were measured with an EVC4000 Multi-Channel V/I Clamp (World Precision Instruments, Sarasota, FL) and PowerLab 4/35 (AD Instruments, Castle Hill, Australia). Data were analyzed using Labchart Pro 7 (AD Instruments). The sampling rate was 4 Hz.\nANO1 belongs to anoctamin gene family which contains ten members presenting eight-pass transmembrane segments with cytosolic N- and C-terminals. ANO2 shares a high level of amino acid homology to ANO1 (~60%) and, ANO1 and ANO2 are confirmed CaCCs. However, the roles of other family members (ANO3-ANO10) remain poorly understood and controversial. […] We investigated the effect of these inhibitors on ANO2-mediated apical membrane current in FRT-ANO2 cells."}, "ANO1 [3]": {"system": "ANO1", "design": "method as in PMID 25739000", "conditions": "spontaneously hypertensive rats (SHRs) ref [8]; cited from earlier work"}, "mouse ANO2": {"molecular_target": "T2, mouse ANO2 (Mus musculus, UniProt Q8CFW1)", "T2 sequence (Q8CFW1 1-1002)": "T1 sequence (Q8CFW1 1-1002)", "experiment": "YFP quenching assay in FRT cells expressing ANO2", "assay_type": "cell-based", "conditions": "dose dependent, 100 μM ATP"}, "ANO1 [4]": {"system": "ANO1", "design": "method as in PMID 25848051", "conditions": "mice ref [14]; cited from earlier work"}, "VRAC [5]": {"system": "VRAC", "design": "method as in PMID 24965069, PMID 25163766, PMID 26438191", "conditions": "ref [26]–[28]; cited from earlier work"}, "ANO1 [6]": {"molecular_target": "T3, ANO1 (Homo sapiens, UniProt Q5XXA6, DEL476-501)", "T3 construct": "expressed in transfected cells", "T3 sequence (Q5XXA6 with tags, fused parts or gaps isoform Q5XXA6-5 DEL539-564)": "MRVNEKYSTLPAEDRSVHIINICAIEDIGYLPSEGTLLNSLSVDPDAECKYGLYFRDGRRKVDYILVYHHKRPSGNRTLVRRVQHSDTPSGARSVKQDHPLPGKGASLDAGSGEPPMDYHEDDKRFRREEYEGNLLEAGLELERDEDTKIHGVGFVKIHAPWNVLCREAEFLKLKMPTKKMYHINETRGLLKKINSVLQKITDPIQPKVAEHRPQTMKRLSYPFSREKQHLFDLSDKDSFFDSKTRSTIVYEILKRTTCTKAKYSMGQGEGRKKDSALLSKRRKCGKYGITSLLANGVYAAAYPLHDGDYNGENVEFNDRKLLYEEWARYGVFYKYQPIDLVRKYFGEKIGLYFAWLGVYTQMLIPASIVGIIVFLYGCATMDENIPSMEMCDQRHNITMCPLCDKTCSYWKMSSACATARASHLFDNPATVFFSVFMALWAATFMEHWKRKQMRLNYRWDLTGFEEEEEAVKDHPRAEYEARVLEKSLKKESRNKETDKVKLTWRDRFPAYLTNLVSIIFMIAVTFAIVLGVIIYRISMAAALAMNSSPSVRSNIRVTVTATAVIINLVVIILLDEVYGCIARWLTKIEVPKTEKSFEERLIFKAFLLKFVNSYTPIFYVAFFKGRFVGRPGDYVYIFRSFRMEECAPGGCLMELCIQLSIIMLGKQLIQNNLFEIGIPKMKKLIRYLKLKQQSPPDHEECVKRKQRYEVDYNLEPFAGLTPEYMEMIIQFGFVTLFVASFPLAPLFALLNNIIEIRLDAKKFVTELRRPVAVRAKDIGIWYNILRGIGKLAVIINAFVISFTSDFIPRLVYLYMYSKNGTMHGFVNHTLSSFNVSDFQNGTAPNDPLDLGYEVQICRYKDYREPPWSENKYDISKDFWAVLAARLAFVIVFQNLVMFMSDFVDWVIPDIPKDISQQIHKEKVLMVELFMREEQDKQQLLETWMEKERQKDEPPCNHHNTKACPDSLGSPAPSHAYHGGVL", "experiment": "Apical membrane current in ANO1 expressing FRT cells", "assay_type": "cell-based", "conditions": "100 μM ATP", "description": "as §1"}, "CaCCs in NHNE cells": {"molecular_target": "T4, CaCCs in NHNE cells (Homo sapiens, UniProt Q5XXA6)", "T4 sequence (Q5XXA6 1-986)": "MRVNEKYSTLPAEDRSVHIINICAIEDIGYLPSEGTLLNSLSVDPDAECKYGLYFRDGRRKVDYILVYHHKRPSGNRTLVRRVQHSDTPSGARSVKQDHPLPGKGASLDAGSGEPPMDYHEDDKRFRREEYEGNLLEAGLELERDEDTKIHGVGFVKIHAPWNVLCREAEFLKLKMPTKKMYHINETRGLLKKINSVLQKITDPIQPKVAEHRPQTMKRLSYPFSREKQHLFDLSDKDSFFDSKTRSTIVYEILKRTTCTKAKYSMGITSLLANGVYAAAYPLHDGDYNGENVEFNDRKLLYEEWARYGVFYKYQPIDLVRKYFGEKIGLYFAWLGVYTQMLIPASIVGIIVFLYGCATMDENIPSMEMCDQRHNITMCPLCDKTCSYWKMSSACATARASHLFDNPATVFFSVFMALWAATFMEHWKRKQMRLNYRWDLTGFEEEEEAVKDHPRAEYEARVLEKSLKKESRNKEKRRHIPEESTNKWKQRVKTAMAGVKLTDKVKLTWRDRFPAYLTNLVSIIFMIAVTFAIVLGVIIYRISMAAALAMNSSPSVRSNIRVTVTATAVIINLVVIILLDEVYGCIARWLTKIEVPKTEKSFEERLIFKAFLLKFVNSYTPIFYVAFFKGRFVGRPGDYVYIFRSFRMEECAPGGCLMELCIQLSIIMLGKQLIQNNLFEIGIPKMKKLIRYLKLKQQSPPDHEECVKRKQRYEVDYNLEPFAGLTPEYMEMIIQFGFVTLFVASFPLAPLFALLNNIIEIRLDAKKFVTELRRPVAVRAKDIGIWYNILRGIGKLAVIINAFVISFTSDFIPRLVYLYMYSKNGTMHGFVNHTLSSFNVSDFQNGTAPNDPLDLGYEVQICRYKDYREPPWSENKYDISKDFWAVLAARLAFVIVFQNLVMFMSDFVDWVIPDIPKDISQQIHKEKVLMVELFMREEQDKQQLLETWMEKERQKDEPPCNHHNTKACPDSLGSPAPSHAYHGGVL", "experiment": "Short-circuit current of CaCC in IL-4 treated NHNE cells", "assay_type": "cell-based", "conditions": "100 μM", "protocol": "Snapwell inserts containing ANO1, ANO2 or CFTR expressing FRT cells, ENaC expressing T-84 cells or the human primary airway epithelial cells were mounted in Ussing chambers (Physiologic Instruments, San Diego, CA). To induce transcriptional ENaC induction, the polarized T84 cells were incubated with 2 mM sodium butyrate for 2 days. To increase the functional expression of ANO1, the human airway epithelial cells were treated with IL-4 (10 ng/mL) for 2 days. For T-84 and the human primary airway epithelial cells, the apical and basolateral bath were filled with HCO3^—buffered solution containing (in mM): 120 NaCl, 5 KCl, 1 MgCl2, 1 CaCl2, 10 D-glucose, 2.5 HEPES, and 25 NaHCO3 (pH 7.4). For FRT cells, the basolateral bath was filled with the HCO3^—buffered solution and the apical bath was filled with a half-Cl^- solution. In the half-Cl^- solution 65 mM NaCl in the HCO3^—buffered solution was replaced by Na-gluconate. […] ATP was applied to the apical bath solution to induce intracellular calcium increase. […] Apical membrane currents were measured with an EVC4000 Multi-Channel V/I Clamp (World Precision Instruments, Sarasota, FL) and PowerLab 4/35 (AD Instruments, Castle Hill, Australia). Data were analyzed using Labchart Pro 7 (AD Instruments). The sampling rate was 4 Hz. […]"}}, "note": "Like-named read-outs stand apart in the source and are kept apart here.", "data": [{"compound": "CCCCC1(C2CCCC2)Cc2cc(OCCCC(=O)O)c(Cl)c(Cl)c2C1=O", "note": "(centres unmarked) [DCPIB]", "values": [{"measurement": "block of VRAC activity", "setting": "VRAC [1]", "result": "completely blocked"}, {"measurement": "effect on hypotonicity-induced VRAC currents", "setting": "VRAC [2]", "result": "almost completely blocked"}]}, {"compound": "CCc1c(C)nc(SCC(=O)Nc2nc(-c3ccc(OC)cc3)cs2)[nH]c1=O", "note": "[Ani T16Ainh-A01]", "values": [{"measurement": "effect on ATP-induced ANO2 current", "setting": "ANO2", "result": "strongly blocked"}, {"measurement": "inhibition of VRAC activity", "setting": "VRAC [1]", "result": "71.2 ± 1.6", "unit": "%"}, {"measurement": "effect on BP", "setting": "ANO1 [3]", "result": "significantly reduced"}, {"measurement": "effect on ANO2 activity", "setting": "mouse ANO2", "result": "potently blocked"}, {"measurement": "effect on capsaicin-evoked pain-related behaviors", "setting": "ANO1 [4]", "result": "significantly reduced"}, {"measurement": "block of VRAC activity", "setting": "VRAC [5]", "result": "potently blocked"}, {"measurement": "inhibition of ATP-induced ANO1 current", "setting": "ANO1 [6]; 10 μM pretreatment", "result": "almost complete inhibition"}, {"measurement": "IC50", "setting": "ANO1 [6]; apical membrane current, 20 min pretreatment, read-out: IC50 of ATP-induced ANO1 activation", "result": "1.39 ± 0.59", "unit": "µM"}]}, {"compound": "tannic acid", "values": [{"measurement": "effect on remaining CaCCs currents", "setting": "CaCCs in NHNE cells", "result": "abolished"}]}]}
